{"source": "patent US8987249B2", "about": "“Substituted 2-Aza-bicyclo[2.2.1]heptane-3-carboxylic acid (benzyl-cyano-methyl)-amides inhibitors of Cathepsin C” (Boehringer Ingelheim International GmbH, priority 2013, dated 2015)", "data": [{"molecular_target": "recombinant human DPPI (Cathepsin C) (Homo sapiens (Human), UniProt P53634)", "sequence (P53634 231-394)": "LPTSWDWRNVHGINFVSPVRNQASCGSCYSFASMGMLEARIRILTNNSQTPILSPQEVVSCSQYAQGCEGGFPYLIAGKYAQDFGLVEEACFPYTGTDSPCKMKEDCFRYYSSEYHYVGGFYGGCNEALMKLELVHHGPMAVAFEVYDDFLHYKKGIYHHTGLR", "sequence (P53634 395-463)": "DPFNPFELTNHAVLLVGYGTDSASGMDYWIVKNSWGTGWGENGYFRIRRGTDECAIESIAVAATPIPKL", "sequence (P53634 25-134)": "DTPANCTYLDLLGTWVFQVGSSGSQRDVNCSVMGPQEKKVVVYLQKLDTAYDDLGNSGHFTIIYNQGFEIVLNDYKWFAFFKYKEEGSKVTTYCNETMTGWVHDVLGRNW", "experiment": "Inhibition of human DPPI (Cathepsin C)", "type": "biochemical", "settings": "substrate Gly-Arg-AMC", "method": "Inhibition of Human DPPI (Cathepsin C)\nBovine serum albumin (BSA; Prod. No. A3059) and Dithiothreitol (DTT; Prod. No D0632) were from Sigma. […] The DPP1 inhibitor Gly-Phe-DMK was purchased from MP Biomedicals (Prod.-No. 03DK00625). The recombinant human DPPI was purchased from Prozymex. All other materials were of highest grade commercially available.\nThe following buffers were used: MES buffer: 25 mM MES, 50 mM NaCl, 5 mM DTT, adjusted to pH 6.0, containing 0.1% BSA; TAGZyme Buffer: 20 mM NaH2PO4, 150 mM NaCl adjusted to pH 6.0 with HCl\nThen, 5 μL of substrate in MES buffer (final concentration 50 μM) were added. The microtiter plates were then incubated at room temperature for 30 min. Then, the reaction was stopped by adding 10 μL of Gly-Phe-DMK in MES-buffer (final concentration 1 μM).\nThe analysis of the data was performed by calculating the percentage of fluorescence in the presence of test compound in comparison to the fluorescence of the vehicle control after subtracting the background fluorescence using the following formula: (RFU(sample)−RFU(background))*100/(RFU(control)−RFU(background))\nData from these calculations were used to generate IC50 values for inhibition of DPPI, respectively.", "units": {"IC50": "nM"}, "values": [{"smiles": "CN1Cc2ccc(-c3ccc(C[C@@H](C#N)NC(=O)[C@H]4N[C@@H]5CC[C@H]4C5)c(F)c3)cc2C1", "note": "[Example 1, (1S,2S,4R)—N-[(1S)-1-cyano-2-[2-fluoro-4-(2-methylisoindolin-5-yl)phenyl]ethyl]-3-azabicyclo[2.2.1]heptane-2-carboxamide]", "IC50": 8.6}, {"smiles": "N#CC(Cc1ccc2[nH]ncc2c1)NC(=O)[C@H]1N[C@@H]2CC[C@H]1C2", "note": "(stereo partly drawn) [Example 8, (1S,2S,4R)—N-[1-cyano-2-(1H-indazol-5-yl)ethyl]-3-azabicyclo[2.2.1]heptane-2-carboxamide]", "IC50": 679}, {"smiles": "COCC(=O)n1cc(-c2ccc(C[C@@H](C#N)NC(=O)[C@H]3N[C@@H]4CC[C@H]3C4)c(F)c2)cn1", "note": "[Example 87]", "IC50": 14.2}, {"smiles": "CN1C(=O)Cc2ccc(-c3ccc(CC(C#N)NC(=O)[C@H]4N[C@@H]5CC[C@H]4C5)c(O)c3)cc21", "note": "(some centres unmarked) [Example 120]", "IC50": 55.6}, {"smiles": "CN1C(=O)Cc2ccc(-c3ccc(CC(C#N)NC(=O)[C@H]4N[C@@H]5CC[C@H]4C5)c(OCc4ccccc4)c3)cc21", "note": "(some centres unmarked) [Example 122]", "IC50": 182}, {"smiles": "N#CC(Cc1ccc2c(c1)[nH]c(=O)c1ccccc12)NC(=O)[C@H]1N[C@@H]2CC[C@H]1C2", "note": "(stereo partly drawn) [Example 123, (1S,2S,4R)—N-[1-cyano-2-(6-oxo-5H-phenanthridin-3-yl)ethyl]-3-azabicyclo[2.2.1]heptane-2-carboxamide]", "IC50": 187}, {"smiles": "CC(C)OCc1cn(-c2ccc(C[C@@H](C#N)NC(=O)[C@H]3N[C@@H]4CC[C@H]3C4)c(F)c2)nn1", "note": "[Example 124]", "IC50": 187}, {"smiles": "Cc1cnn(C)c1-c1ccc(C[C@@H](C#N)NC(=O)[C@H]2N[C@@H]3CC[C@H]2C3)c(F)c1", "note": "[Example 126]", "IC50": 275}, {"smiles": "N#CC(Cc1ccc2cn[nH]c2c1)NC(=O)[C@H]1N[C@@H]2CC[C@H]1C2", "note": "(some centres unmarked) [Example 127]", "IC50": 860}, {"smiles": "N#CC(Cc1cccc2[nH]c(=O)c3ccccc3c12)NC(=O)[C@H]1N[C@@H]2CC[C@H]1C2", "note": "(stereo partly drawn) [Example 128, (1S,2S,4R)—N-[1-cyano-2-(6-oxo-5H-phenanthridin-1-yl)ethyl]-3-azabicyclo[2.2.1]heptane-2-carboxamide]", "IC50": 2390}, {"smiles": "Cn1c(=O)oc2ccc(-c3ccc(C[C@@H](C#N)NC(=O)[C@H]4N[C@H]5C[C@@H]4[C@@H]4C[C@@H]45)c(F)c3)cc21", "note": "[Example 129]", "IC50": 82.7}, {"smiles": "CC(=O)Nc1ccc(-c2ccc(C[C@@H](C#N)NC(=O)[C@H]3N[C@H]4C[C@@H]3[C@@H]3C[C@@H]34)c(F)c2)cc1", "note": "[Example 131]", "IC50": 139}, {"smiles": "Cn1cc2ccc(-c3ccc(C[C@@H](C#N)NC(=O)[C@H]4N[C@H]5C[C@@H]4[C@@H]4C[C@@H]45)c(F)c3)cc2n1", "note": "[Example 135]", "IC50": 286}, {"smiles": "Cn1ncc2cc(-c3ccc(C[C@@H](C#N)NC(=O)[C@H]4N[C@H]5C[C@@H]4[C@@H]4C[C@@H]45)c(F)c3)ccc21", "note": "[Example 137]", "IC50": 59.7}, {"smiles": "N#Cc1ccc(-c2ccc(C[C@@H](C#N)NC(=O)[C@H]3N[C@H]4C[C@@H]3[C@@H]3C[C@@H]34)c(F)c2)cn1", "note": "[Example 142]", "IC50": 63.1}, {"smiles": "Cc1nn(C)cc1-c1ccc(C[C@@H](C#N)NC(=O)[C@H]2N[C@@H]3CC[C@H]2C3)c(F)c1", "note": "[Example 160]", "IC50": 1.7}, {"smiles": "Cn1cc(-c2ccc(C[C@@H](C#N)NC(=O)[C@H]3N[C@@H]4CC[C@H]3C4)c(F)c2)cn1", "note": "[Example 163]", "IC50": 2.1}, {"smiles": "CCCNC(=O)c1cc(-c2ccc(C[C@@H](C#N)NC(=O)[C@H]3N[C@@H]4CC[C@H]3C4)c(F)c2)cs1", "note": "[Example 164]", "IC50": 2.3}, {"smiles": "N#C[C@H](Cc1ccc(-c2csc(C(=O)N3CCCC3)c2)cc1F)NC(=O)[C@H]1N[C@@H]2CC[C@H]1C2", "note": "[Example 165]", "IC50": 2.7}, {"smiles": "N#C[C@H](Cc1ccc(-c2cnn3cccnc23)cc1F)NC(=O)[C@H]1N[C@@H]2CC[C@H]1C2", "note": "[Example 168]", "IC50": 3.7}, {"smiles": "CN(C)C(=O)c1cc(-c2ccc(C[C@@H](C#N)NC(=O)[C@H]3N[C@@H]4CC[C@H]3C4)c(F)c2)cs1", "note": "[Example 170]", "IC50": 4.2}, {"smiles": "CCOc1nc(-c2ccc(C[C@@H](C#N)NC(=O)[C@H]3N[C@@H]4CC[C@H]3C4)c(F)c2)cs1", "note": "[Example 172]", "IC50": 5.2}, {"smiles": "N#C[C@H](Cc1ccc(-c2cnc(C3CC3)s2)cc1F)NC(=O)[C@H]1N[C@@H]2CC[C@H]1C2", "note": "[Example 173]", "IC50": 5.5}, {"smiles": "N#C[C@H](Cc1ccc(-c2cnc3cccnn23)cc1F)NC(=O)[C@H]1N[C@@H]2CC[C@H]1C2", "note": "[Example 174]", "IC50": 5.6}, {"smiles": "COC(=O)c1ccc(-c2ccc(C[C@@H](C#N)NC(=O)[C@H]3N[C@@H]4CC[C@H]3C4)c(F)c2)o1", "note": "[Example 175]", "IC50": 6.3}, {"smiles": "N#C[C@H](Cc1ccc(-c2ccc(S(=O)(=O)N3CCCCC3)cc2)cc1F)NC(=O)[C@H]1N[C@@H]2CC[C@H]1C2", "note": "[Example 177]", "IC50": 7.4}, {"smiles": "CCOC(=O)c1ccc(-c2ccc(C[C@@H](C#N)NC(=O)[C@H]3N[C@@H]4CC[C@H]3C4)c(F)c2)s1", "note": "[Example 179]", "IC50": 7.5}, {"smiles": "N#C[C@H](Cc1ccc(N2CCN(C3CC3)CC2)cc1F)NC(=O)[C@H]1N[C@@H]2CC[C@H]1C2", "note": "[Example 187]", "IC50": 9.8}, {"smiles": "CC1(C)CCN(c2ccc(C[C@@H](C#N)NC(=O)[C@H]3N[C@@H]4CC[C@H]3C4)c(F)c2)CC1", "note": "[Example 195]", "IC50": 14.7}, {"smiles": "N#C[C@H](Cc1ccc(N2CCCCC2)cc1F)NC(=O)[C@H]1N[C@@H]2CC[C@H]1C2", "note": "[Example 197]", "IC50": 15.6}, {"smiles": "COC(=O)c1cc(C)c(-c2ccc(C[C@@H](C#N)NC(=O)[C@H]3N[C@@H]4CC[C@H]3C4)c(F)c2)s1", "note": "[Example 198]", "IC50": 15.8}, {"smiles": "N#C[C@H](Cc1ccc(-c2ccc(C(=O)N3CCOCC3)cc2)cc1F)NC(=O)[C@H]1N[C@@H]2CC[C@H]1C2", "note": "[Example 202]", "IC50": 22.9}, {"smiles": "Cn1c(=O)c2cc(CC(C#N)NC(=O)[C@H]3N[C@@H]4CC[C@H]3C4)ccc2c2ccccc21", "note": "(some centres unmarked) [Example 206]", "IC50": 26.3}, {"smiles": "N#CC(Cc1ccc2c(c1)[nH]c(=O)c1cc(F)ccc12)NC(=O)[C@H]1N[C@@H]2CC[C@H]1C2", "note": "(some centres unmarked) [Example 207]", "IC50": 29.1}, {"smiles": "Cc1cn(C)c(-c2ccc(C[C@@H](C#N)NC(=O)[C@H]3N[C@@H]4CC[C@H]3C4)c(F)c2)n1", "note": "[Example 208]", "IC50": 29.8}, {"smiles": "N#CC(Cc1ccc2c(c1)CCc1ccccc1-2)NC(=O)[C@H]1N[C@@H]2CC[C@H]1C2", "note": "(some centres unmarked) [Example 209]", "IC50": 45.8}, {"smiles": "N#C[C@H](Cc1ccc(-c2ccc(C(=O)N3CCCCC3)cc2)cc1F)NC(=O)[C@H]1N[C@@H]2CC[C@H]1C2", "note": "[Example 210]", "IC50": 49.4}, {"smiles": "CN(C)C(=O)c1ccc(-c2ccc(C[C@@H](C#N)NC(=O)[C@H]3N[C@@H]4CC[C@H]3C4)c(F)c2)cc1", "note": "[Example 211]", "IC50": 61.1}, {"smiles": "N#CC(Cc1ccc2oc3ccccc3c2c1)NC(=O)[C@H]1N[C@@H]2CC[C@H]1C2", "note": "(some centres unmarked) [Example 212]", "IC50": 296}, {"smiles": "N#CC(Cc1ccc2[nH]c3ccccc3c2c1)NC(=O)[C@H]1N[C@@H]2CC[C@H]1C2", "note": "(some centres unmarked) [Example 213]", "IC50": 619}, {"smiles": "CS(=O)(=O)c1cc(-c2ccc(C[C@@H](C#N)NC(=O)[C@H]3N[C@H]4CC[C@@H]3C4)c(F)c2)ccc1C#N", "note": "[Example 214]", "IC50": 815}, {"smiles": "N#CC(Cc1cccc2[nH]c(=O)c3cc(F)ccc3c12)NC(=O)[C@H]1N[C@@H]2CC[C@H]1C2", "note": "(some centres unmarked) [Example 215]", "IC50": 882}, {"smiles": "N#C[C@H](Cc1ccc(-c2ccc(S(=O)(=O)N3CCOCC3)cc2)cc1F)NC(=O)[C@H]1N[C@@H]2CC[C@H]1C2", "note": "[Example 217]", "IC50": 3.7}, {"smiles": "N#C[C@H](Cc1ccc2ccccc2c1)NC(=O)[C@H]1N[C@@H]2CC[C@H]1C2", "note": "[Example 220]", "IC50": 253}, {"smiles": "CN1CCN(S(=O)(=O)c2cccc(-c3ccc(C[C@@H](C#N)NC(=O)[C@H]4N[C@@H]5CC[C@H]4C5)c(F)c3)c2)CC1", "note": "[Example 224]", "IC50": 1.2}, {"smiles": "CN1CCN(C(=O)c2cc(-c3ccc(C[C@@H](C#N)NC(=O)[C@H]4N[C@@H]5CC[C@H]4C5)c(F)c3)cs2)CC1", "note": "[Example 225]", "IC50": 0.8}, {"smiles": "N#C[C@H](Cc1ccc(-c2csc(C(=O)N3CCn4nccc4C3)c2)cc1F)NC(=O)[C@H]1N[C@@H]2CC[C@H]1C2", "note": "[Example 226]", "IC50": 0.9}, {"smiles": "CC(C)N1CCN(C(=O)c2cc(-c3ccc(C[C@@H](C#N)NC(=O)[C@H]4N[C@@H]5CC[C@H]4C5)c(F)c3)cs2)CC1", "note": "[Example 227]", "IC50": 1}, {"smiles": "N#C[C@H](Cc1ccc(-c2csc(C(=O)N3CCN(CC(F)(F)F)CC3)c2)cc1F)NC(=O)[C@H]1N[C@@H]2CC[C@H]1C2", "note": "[Example 232]", "IC50": 2.2}, {"smiles": "N#C[C@H](Cc1ccc(-c2cnn(S(=O)(=O)c3ccccc3)c2)cc1F)NC(=O)[C@H]1N[C@@H]2CC[C@H]1C2", "note": "[Example 243]", "IC50": 4.8}, {"smiles": "CN(C)CCn1ccc(-c2ccc(C[C@@H](C#N)NC(=O)[C@H]3N[C@@H]4CC[C@H]3C4)c(F)c2)cc1=O", "note": "[Example 256]", "IC50": 26.3}, {"smiles": "N#C[C@H](Cc1ccc(-c2cc[nH]c(=O)c2)cc1F)NC(=O)[C@H]1N[C@@H]2CC[C@H]1C2", "note": "[Example 257]", "IC50": 39.9}, {"smiles": "CS(=O)(=Nc1cccc(-c2ccc(C[C@@H](C#N)NC(=O)[C@H]3N[C@@H]4CC[C@H]3C4)c(F)c2)c1)C1CCOCC1", "note": "(some centres unmarked) [Example 264]", "IC50": 17}, {"smiles": "C[S+]([O-])c1cc(=O)n(-c2ccc(C[C@@H](C#N)NC(=O)[C@H]3N[C@@H]4CC[C@H]3C4)c(F)c2)cc1F", "note": "(some centres unmarked) [Example 265]", "IC50": 62.7}, {"smiles": "CCc1cc(-c2ccc(C[C@@H](C#N)NC(=O)[C@H]3N[C@@H]4CC[C@H]3C4)c(F)c2)nn1CC(C)C", "note": "[Example 273]", "IC50": 28.9}, {"smiles": "CCOc1cc(-c2ccc(C[C@@H](C#N)NC(=O)[C@H]3N[C@@H]4CC[C@H]3C4)c(F)c2)cc(S(C)(=O)=O)c1", "note": "[Example 275]", "IC50": 33}]}]}
